Entries after “also recorded” stand apart in the source; their conditions may differ.
T1: TIKI2N (Homo sapiens, UniProt A6NFA1)
T1 construct: which is the extracellular domain of TIKI2 fused with a carboxyl FLAG tag and a 6×HIS tag; made in house; host or cells: HEK293T
T1 sequence (A6NFA1 20-486 limits assumed): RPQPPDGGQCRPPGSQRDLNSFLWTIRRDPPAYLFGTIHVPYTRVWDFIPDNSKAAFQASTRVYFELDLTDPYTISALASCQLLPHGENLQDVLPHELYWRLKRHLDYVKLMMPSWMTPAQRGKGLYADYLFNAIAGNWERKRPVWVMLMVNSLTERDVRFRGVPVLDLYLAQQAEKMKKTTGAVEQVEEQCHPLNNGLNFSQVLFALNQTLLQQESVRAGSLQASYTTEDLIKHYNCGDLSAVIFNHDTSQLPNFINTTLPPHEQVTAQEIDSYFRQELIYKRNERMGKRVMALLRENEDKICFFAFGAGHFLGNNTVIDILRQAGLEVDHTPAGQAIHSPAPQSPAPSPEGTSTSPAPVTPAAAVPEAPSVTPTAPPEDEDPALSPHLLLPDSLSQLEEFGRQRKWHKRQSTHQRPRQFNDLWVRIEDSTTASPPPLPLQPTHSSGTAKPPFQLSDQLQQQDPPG


Tests used:
TIKI2N = molecular target: T1, TIKI2N; experiment: In vitro treatment of HA-Wnt3a with purified TIKI2N (cleavage, Western blotting); format: biochemical; conditions: for Rescue of TIKI2N activity with divalent metals after inhibition with 1,10-Phenanthroline: 20 μM 1,10-Phenanthroline 1 hr, then 50 μM metal ion for another 2 hrs; for Effects of divalent metals on TIKI2N activity: 50 μM of each divalent metal ion, 2 hrs; for Effects of divalent metals on TIKI2N activity / TIKI2N activity (cleavage of HA-Wnt3a) in the presence of protease inhibitor: in vitro; for TIKI2N activity (cleavage of HA-Wnt3a) in the presence of protease inhibitor: purified TIKI2N + recombinant HA-Wnt3a, Western blotting
Description: HEK293T cells in 100 mm dishes were transfected with TIKI2N-, KRM2N-, TIKI2NΔ-FLAG-6×HIS (“6×HIS” disclosed as SEQ ID NO: 57) or HA-Wnt3a vectors. The medium containing transfection mixture was replaced with 6 ml fresh medium 24 hrs post-transfection, and incubated for another 24 hrs. To purify TIKI2N, KRM2N and TIKI2NΔ, cells were washed with PBS and lysed in ice-cold PBS containing 0.2% NP-40, 20 mM imidazole and the protease inhibitor cocktail (Roche) to make whole cell lysates (WCL). WCL was mixed with Ni-NTA agarose beads (QIAGEN) and incubated at 4° C. with rotation for 1 hr. The beads were pelleted by centrifugation and washed four times with PBS/0.2% NP-40 and the FLAG-6×HIS (“6×HIS” disclosed as SEQ ID NO: 57) fusion proteins were eluted with PBS/0.2% NP-40 containing 100 mM imidazole. The elute was diluted 3 time with PBS/0.2% NP-40 and were mixed with FLAG M2 agarose beads (Sigma). Following 2 hrs incubation with rotation at 4° C., the beads were pelleted by centrifugation and washed three times with PBS/0.2% NP-40 and one time with HEPES buffer (50 mM HEPES (pH 7.4), 100 mM NaCl, 0.2% NP-40). The FLAG fusion proteins were eluted with HEPES buffer containing 50 μg/ml 3×FLAG peptide. To purify HA-Wnt3a, the conditioned medium (CM) was collected and was cleared by centrifugation and 0.2% NP-40 was added. The CM was mixed with anti-HA agarose beads (Sigma). Following 2 hrs incubation with rotation at 4° C., the beads were pelleted by centrifugation and washed three times with PBS/0.2% NP-40 and one time with HEPES buffer (50 mM HEPES (pH 7.4), 100 mM NaCl, 0.2% NP-40). The HA-Wnt3a protein was eluted with HEPES buffer containing 300 μg/ml HA peptide.
About 50 ng purified TIKI2N, KRM2N, or TIKI2NΔ protein was mixed with 10 ng purified HA-Wnt3a in a total volume of 10 μl HEPES buffer (50 mM HEPES (pH 7.4), 100 mM NaCl, 0.2% NP-40) and incubated at 30° C. To examine TIKI2N activity in different pH conditions, the following buffer was used instead of HEPES, 100 mM sodium acetate (pH 5.5), 100 mM Tris-HCl (pH 6, 7, 8, 9) or 50 mM CAPS (pH 10, 11). The reaction product was analyzed by SDS-PAGE and Western blotting with anti-HA and anti-Wnt3a antibodies. For mass spectrometric analysis, 200 ng of recombinant Wnt3a (from Stem RD) was incubated with about 500 ng of TIKIN or KRM2N overnight at 30° C. and separated by SDS-PAGE. The Wnt3a bands were cut, trypsin digested and subjected to mass spectrometric analyses.
TIKI protease activity was characterized under in vitro conditions. […] Different protease inhibitors were applied to survey which protease family TIKI might belong to. […] Metalloproteases are defined by their dependence on divalent metals as co-factors (Barrett, 1998).

Wnt3a = experiment: TOPFLASH assay of TIKI2N mutants co-transfected with Wnt3a in HEK293T cells; format: cell-based, human; conditions: 5, 2.5, 1.25 and 0.612 ng plasmid with Wnt3a 20 ng
Description: FIG. 8B. Bar graph showing the results of a TOPFLASH assay testing TIKI2 mutations in Human TIKI2N construct (no transmembrane domain). Decreasing doses of 5, 2.5, 1.25 and 0.612 ng of the indicated TIKI2N expression plasmid were cotransfected with Wnt3a (20 ng) in HEK293T cells.
HEK293T, HeLa, L and L-Wnt3a cells (from ATCC) were maintained in Dulbecco's modified Eagle's medium (DMEM; Invitrogen) supplemented with 10% fetal bovine serum (FBS) and 1% penicillin-streptomycin-glutamine (Invitrogen). Lipofectamine 2000 (Invitrogen) or Fugene6 (Roche) was used for all cell transfections. L and L-Wnt3a cells that stably express TIKI2 were generated by infecting cells with retroviruses and selected by puromycin. L cells stably expressing Wnt3a(FLAG) were established by transfecting L cells with a Wnt3a(FLAG) expressing vector and selected with neomycine. L cells stably expressing both Wnt3a(FLAG) and TIKI2 were also generated. TOPFLASH reporter assay was performed as previously described (MacDonald et al., 2008).
A Wnt-responsive reporter (TOP-FLASH) assay was performed to test mutations at T56A, H58A, E85A, E205A, H256A, R303A, H331A in a Human TIKI2N construct (no transmembrane domain). Decreasing doses of 5, 2.5, 1.25 and 0.612 ng of the indicated TIKI2N expression plasmid were co-transfected with Wnt3a (20 ng) in HEK293T cells. […] T56A, H256A, and R303A had no effect on TIM activity, and so are likely to be less important sites for function.

| Effects of divalent metals on TIKI2N activity (TIKI2N) | Molecule | TIKI activity of TIKI2N mutants (inhibition of Wnt3a-induced TOPFLASH) (Wnt3a) | further results |
| --- | --- | --- | --- |
| enhanced | [Mn+2] [Mn^2+] |  | Rescue of TIKI2N activity with divalent metals after inhibition with 1,10-Phenanthroline (TIKI2N): rescued; also recorded: fully restored |
| inhibited TIKI2N activity | [Cu+2] [Cu^2+] |  |  |
| inhibited TIKI2N activity | [Zn+2] [Zn^2+] |  |  |
|  | CC(C)C[C@H](NC(=O)[C@@H](O)[C@H](N)Cc1ccccc1)C(=O)O [Bestatin] |  | TIKI2N activity (cleavage of HA-Wnt3a) in the presence of protease inhibitor (TIKI2N): not |
|  | c1cnc2c(c1)ccc1cccnc12 [1,10-phenanthroline] |  | TIKI2N activity (cleavage of HA-Wnt3a) in the presence of protease inhibitor (TIKI2N): potently inhibited; TIKI2N activity (cleavage of HA-Wnt3a) in the presence of protease inhibitor (TIKI2N; listed as 1, 10-Phenanthroline): sensitive |
|  | O=C(O)CN(CCN(CC(=O)O)CC(=O)O)CC(=O)O [EDTA] |  | TIKI2N activity (cleavage of HA-Wnt3a) in the presence of protease inhibitor (TIKI2N): inhibited TIKI2N activity; also recorded: inhibited, albeit more mildly |
| enhanced | [Co+2] [Co^2+] |  | Rescue of TIKI2N activity with divalent metals after inhibition with 1,10-Phenanthroline (TIKI2N): rescued; also recorded: fully restored |
|  | H58A: alanine mutation in Human TIKI2N construct (no transmembrane domain) (protein, UniProt A6NFA1 20-494, looked up, variant H58A, extracellular domain) extracellular domain: RPQPPDGGQCRPPGSQRDLNSFLWTIRRDPPAYLFGTIAVPYTRVWDFIPDNSKAAFQASTRVYFELDLTDPYTISALASCQLLPHGENLQDVLPHELYWRLKRHLDYVKLMMPSWMTPAQRGKGLYADYLFNAIAGNWERKRPVWVMLMVNSLTERDVRFRGVPVLDLYLAQQAEKMKKTTGAVEQVEEQCHPLNNGLNFSQVLFALNQTLLQQESVRAGSLQASYTTEDLIKHYNCGDLSAVIFNHDTSQLPNFINTTLPPHEQVTAQEIDSYFRQELIYKRNERMGKRVMALLRENEDKICFFAFGAGHFLGNNTVIDILRQAGLEVDHTPAGQAIHSPAPQSPAPSPEGTSTSPAPVTPAAAVPEAPSVTPTAPPEDEDPALSPHLLLPDSLSQLEEFGRQRKWHKRQSTHQRPRQFNDLWVRIEDSTTASPPPLPLQPTHSSGTAKPPFQLSDQLQQQDPPGPASSSAPT | inactive |  |
|  | E205A: alanine mutation in Human TIKI2N construct (no transmembrane domain) (protein, UniProt A6NFA1 20-494, looked up, variant E205A, extracellular domain) extracellular domain: RPQPPDGGQCRPPGSQRDLNSFLWTIRRDPPAYLFGTIHVPYTRVWDFIPDNSKAAFQASTRVYFELDLTDPYTISALASCQLLPHGENLQDVLPHELYWRLKRHLDYVKLMMPSWMTPAQRGKGLYADYLFNAIAGNWERKRPVWVMLMVNSLTERDVRFRGVPVLDLYLAQQAEKMKKTTGAVAQVEEQCHPLNNGLNFSQVLFALNQTLLQQESVRAGSLQASYTTEDLIKHYNCGDLSAVIFNHDTSQLPNFINTTLPPHEQVTAQEIDSYFRQELIYKRNERMGKRVMALLRENEDKICFFAFGAGHFLGNNTVIDILRQAGLEVDHTPAGQAIHSPAPQSPAPSPEGTSTSPAPVTPAAAVPEAPSVTPTAPPEDEDPALSPHLLLPDSLSQLEEFGRQRKWHKRQSTHQRPRQFNDLWVRIEDSTTASPPPLPLQPTHSSGTAKPPFQLSDQLQQQDPPGPASSSAPT | inactive |  |
|  | E85A: alanine mutation in Human TIKI2N construct (no transmembrane domain) (protein, UniProt A6NFA1 20-494, looked up, variant E85A, extracellular domain) extracellular domain: RPQPPDGGQCRPPGSQRDLNSFLWTIRRDPPAYLFGTIHVPYTRVWDFIPDNSKAAFQASTRVYFALDLTDPYTISALASCQLLPHGENLQDVLPHELYWRLKRHLDYVKLMMPSWMTPAQRGKGLYADYLFNAIAGNWERKRPVWVMLMVNSLTERDVRFRGVPVLDLYLAQQAEKMKKTTGAVEQVEEQCHPLNNGLNFSQVLFALNQTLLQQESVRAGSLQASYTTEDLIKHYNCGDLSAVIFNHDTSQLPNFINTTLPPHEQVTAQEIDSYFRQELIYKRNERMGKRVMALLRENEDKICFFAFGAGHFLGNNTVIDILRQAGLEVDHTPAGQAIHSPAPQSPAPSPEGTSTSPAPVTPAAAVPEAPSVTPTAPPEDEDPALSPHLLLPDSLSQLEEFGRQRKWHKRQSTHQRPRQFNDLWVRIEDSTTASPPPLPLQPTHSSGTAKPPFQLSDQLQQQDPPGPASSSAPT | inactive |  |
|  | H331A: alanine mutation in Human TIKI2N construct (no transmembrane domain) (protein, UniProt A6NFA1 20-494, looked up, variant H331A, extracellular domain) extracellular domain: RPQPPDGGQCRPPGSQRDLNSFLWTIRRDPPAYLFGTIHVPYTRVWDFIPDNSKAAFQASTRVYFELDLTDPYTISALASCQLLPHGENLQDVLPHELYWRLKRHLDYVKLMMPSWMTPAQRGKGLYADYLFNAIAGNWERKRPVWVMLMVNSLTERDVRFRGVPVLDLYLAQQAEKMKKTTGAVEQVEEQCHPLNNGLNFSQVLFALNQTLLQQESVRAGSLQASYTTEDLIKHYNCGDLSAVIFNHDTSQLPNFINTTLPPHEQVTAQEIDSYFRQELIYKRNERMGKRVMALLRENEDKICFFAFGAGAFLGNNTVIDILRQAGLEVDHTPAGQAIHSPAPQSPAPSPEGTSTSPAPVTPAAAVPEAPSVTPTAPPEDEDPALSPHLLLPDSLSQLEEFGRQRKWHKRQSTHQRPRQFNDLWVRIEDSTTASPPPLPLQPTHSSGTAKPPFQLSDQLQQQDPPGPASSSAPT | inactive |  |

| Molecule | Effects of divalent metals on TIKI2N activity (TIKI2N) | TIKI activity of TIKI2N mutants (inhibition of Wnt3a-induced TOPFLASH) (Wnt3a) | further results |
| --- | --- | --- | --- |
| [Ni+2] [Ni^2+] | inhibited TIKI2N activity |  |  |
